Laboratory results: PMC7576996, “Antiparasitic Behavior of Trifluoromethylated Pyrazole 2-Amino-1,3,4-thiadiazole Hybrids and Their Analogues: Synthesis and Structure-Activity Relationship” (Frontiers in Pharmacology, 2020)

Tests used:
[1] = Cytotoxicity assay in LLCMK2 epithelial cells (MTT, 72 h); format: cell-based; settings: Macaca mulatta, LLCMK2 kidney epithelial cells, pH 7.2, LLCMK2, 50% inhibition of growth
Experimental: (§1) All the novel trifluoromethylated pyrazoles derivatives 2a–f, 3a–f, and 4a–f were evaluated against the promastigote form of L. amazonensis and the epimastigote form of T. cruzi. The results are reported as the concentration causing a 50% inhibition in cell growth (IC50). Additionally, the toxicity of compounds was evaluated against two different cell lines: epithelial cell LLCMK2 and macrophages J774A1. The antiproliferative and cytotoxic activities are shown in Table 2 , as well as the calculated selectivity index (SI).
(§2) 2.4. Antiproliferative activity […]
(§3) Cytotoxicity activity was determined in LLCMK2 (epithelial cells of kidney of Macaca
(§4) mulatta) cells and J774A1 macrophages. LLCMK2 (epithelial cells of kidney of Macaca mulatta) cells
(§5) were cultured in Dulbecco’s modified Eagle’s medium (DMEM, pH 7.2) supplemented with 10% FBS
(§6) at 37 °C in a 5% CO2 atmosphere. J774A1 macrophages were cultured in RPMI-1640 (pH 7.2) medium
(§7) supplemented with 10% FBS at 37 °C in a 5% CO2 atmosphere.
(§8) 2.4.2. Dilution of compounds
(§9) Stock solutions of the compounds were prepared in DMSO and then diluted in the respective
(§10) medium. The groups (controls and treated) were tested with DMSO concentrations below 1%, with
(§11) 2.4.3. Antiproliferative assay […]
(§12) 2.4.4. Cytotoxicity assay
(§13) LLCMK2 cells (2.5 × 10^5 cells/mL) suspension was prepared in DMEM medium supplemented
(§14) with 10% FBS and added to 96-well plates. Then, the plates were incubated at 37 °C in a
(§15) CO2 atmosphere for 24h to obtain confluent cell growth. After incubation, cells were treated or not
(§16) with different concentrations of compounds diluted in DMEM for 72 h. Macrophage (5 × 10^5 cells/mL)
(§17) suspension was prepared in RPMI-1640 medium supplemented with 10% FBS and added to 96-well
(§18) plates. Then, the plates were incubated at 37 °C in a CO2 atmosphere for 24h to obtain confluent cell
(§19) growth. After incubation, cells were treated or not with different concentrations of compounds diluted
(§20) in RPMI-1640 for 48h. After treatment, medium was removed and cells were incubated with MTT (2
(§21) mg/mL) for 4h. Then, DMSO was added for solubilization of the formazan and analyzed with a reading
(§22) microplate reader (BIO-TEK PowerWave XS spectrophotometer) at 392 nm. The percentage of viable
(§23) cells was calculated in relation to the control to determine the cytotoxic concentration to 50% of the […]

[2] = system: epimastigote form of Trypanosoma cruzi; test: Antiproliferative assay, epimastigote form of Trypanosoma cruzi (XTT, 96 h); format: cell-based; settings: for SI T-M, selectivity index (Macrophages CC50/T. cruzi IC50): J774A1 vs epimastigotes; for SI T-E, selectivity index (Epithelial CC50/T. cruzi IC50): LLCMK2 vs epimastigotes; for IC50: Trypanosoma cruzi, epimastigote form, 96 h, mean ± standard deviation, read-out: T. cruzi IC50
Experimental: as §1
(§24) 2.4. Antiproliferative activity
(§25) Promastigotes forms of Leishmania amazonensis (strain WHOM/ BR/75/JOSEFA) were
(§26) cultured in Warren medium (brain heart infusion, hemin, and folic acid; pH 7.4) supplemented with
(§27) 10% fetal bovine serum (FBS) at 25 °C. Epimastigote forms of Trypanosoma cruzi (Y strain) were
(§28) cultured in LIT medium (liver infusion tryptose; hemim, and folic acid; pH 7.4) supplemented with
as §3, §4, §5, §6, §7, §8, §9, §10
(§29) 2.4.3. Antiproliferative assay
(§30) Promastigote forms (1 × 10^6 parasites/mL) were cultured in 96-well plates in the presence and
(§31) absence of different concentrations of compounds diluted in Warren medium supplemented with 10%
(§32) FBS and incubated for 72h. Epimastigote forms (1 × 10^6 parasites/mL) were cultured in 96 -well plates
(§33) in the presence and absence of different concentrations of compounds diluted in LIT medium
(§34) supplemented with 10% FBS and incubated for 96h. After treatment, the parasites were incu bated with
(§35) a solution of 2,3 -bis (2 -methoxy -4-nitro -5-sulfophenyl) -2H-tetrazolium -5-carboxanilide (XTT; 0.5
(§36) mg/mL) and phenazine methanesulfonate activator (PMS; 0.06 mg/mL) in PBS for 4h. Then, the
(§37) absorbance was read in a microplate reader (Bio Tek - Power Wave XS) at 450 nm. The percentage of
(§38) viable parasites was calculated in relation to the control in order to determine the concentration that
(§39) inhibits 50% of the protozoa (IC 50).
as §12, §13, §14, §15, §16, §17, §18, §19, §20, §21

[3] = system: promastigote form of Leishmania amazonensis; test: Antiproliferative assay, promastigote form of Leishmania amazonensis (XTT, 72 h); format: cell-based; settings: for SI L-M, selectivity index (Macrophages CC50/L. amazonensis IC50): J774A1 vs promastigotes; for SI L-E, selectivity index (Epithelial CC50/L. amazonensis IC50): LLCMK2 vs promastigotes; for IC50: Leishmania amazonensis, promastigote form, 72 h, mean ± standard deviation, read-out: L. amazonensis IC50
Experimental: as §1, §24, §25, §26, §27, §28, §3, §4, §5, §6, §7, §8, §9, §10, §29, §30, §31, §32, §33, §34, §35, §36, §37, §38, §39, §12, §13, §14, §15, §16, §17, §18, §19, §20, §21

[4] = Cytotoxicity assay in J774A1 macrophages (MTT, 48 h); format: cell-based; settings: mouse, pH 7.2, J774A1, 50% inhibition of growth
Experimental: as §1, §2, §3, §4, §5, §6, §7, §8, §9, §10, §11, §12, §13, §14, §15, §16, §17, §18, §19, §20, §21, §22, §23

Compound | CC50 at 72 h [1] [µM] | SI T-M, selectivity index (Macrophages CC50/T. cruzi IC50) [2] | SI T-E, selectivity index (Epithelial CC50/T. cruzi IC50) [2] | IC50 [2] [µM] | SI L-M, selectivity index (Macrophages CC50/L. amazonensis IC50) [3] | SI L-E, selectivity index (Epithelial CC50/L. amazonensis IC50) [3] | IC50 [3] [µM] | CC50 at 48 h [4] [µM] | melting point [°C]
NC(=S)NN=Cc1c(C(F)(F)F)nn(-c2ccccc2)c1-c1ccc([N+](=O)[O-])cc1 [2a, 4-[(2-carbamothioyl-hydrazinylidene)methyl]-3-trifluoromethyl-5-(4-nitrophenyl)-1-phenyl-1H-pyrazole] | 303 ± 5.8 | 5.32 | 6.62 | 45.7 ± 5 | 9.10 | 11.33 | 26.7 ± 1.4 | 243 ± 3.6 | 226.5
NC(=S)NN=Cc1c(C(F)(F)F)nn(-c2ccccc2)c1-c1ccc(F)cc1 [2b, 4-[(2-carbamothioyl-hydrazinylidene)methyl]-3-trifluoromethyl-5-(4-fluorophenyl)-1-phenyl-1H-pyrazole] | 345.7 ± 2.6 | 2.92 | 4.99 | 69.3 ± 2.9 | 4.09 | 6.97 | 49.6 ± 3.8 | 203 ± 5.9 | 221.18
NC(=S)NN=Cc1c(C(F)(F)F)nn(-c2ccccc2)c1-c1ccc(Cl)cc1 [2c, 4-[(2-carbamothioyl-hydrazinylidene)methyl]-5-(4-chlorophenyl)-3-trifluoromethyl-1-phenyl-1H-pyrazole] | 377 ± 5 | 8.17 | 7.66 | 49.2 ± 3.1 | 9.02 | 8.45 | 44.6 ± 6.2 | 402 ± 8.3 | 225.37
NC(=S)NN=Cc1c(C(F)(F)F)nn(-c2ccccc2)c1-c1ccc(Br)cc1 [2d, 5-(4-bromophenyl)-4-[(2-carbamothioyl-hydrazinylidene)methyl]-3-trifluoromethyl-1-phenyl-1H-pyrazole] | 148 ± 6.9 | 5.60 | 4.89 | 30.3 ± 5.2 | 8.98 | 7.85 | 18.9 ± 1.1 | 170 ± 7.2 | 
NC(=S)NN=Cc1c(C(F)(F)F)nn(-c2ccccc2)c1-c1ccccc1 [2e, 4-[(2-carbamothioyl-hydrazinylidene)methyl]-3-trifluoromethyl-1,5-diphenyl-1H-pyrazole] | 394 ± 7.1 | 4.81 | 4.75 | 83.1 ± 5.3 | 6.47 | 6.39 | 61.7 ± 2.9 | 400 ± 6.6 | 211.27
COc1ccc(-c2c(C=NNC(N)=S)c(C(F)(F)F)nn2-c2ccccc2)cc1 [2f, 4-[(2-carbamothioyl-hydrazinylidene)methyl]-3-trifluoromethyl-5-(4-methoxyphenyl)-1-phenyl-1H-pyrazole] | 155 ± 2.6 | 6.06 | 5.21 | 29.7 ± 2.6 | 8.04 | 6.91 | 22.4 ± 3 | 180 ± 4.7 | 212.65
CSC(N)=NN=Cc1c(C(F)(F)F)nn(-c2ccccc2)c1-c1ccc([N+](=O)[O-])cc1 [3a] | 176 ± 5.9 | 9.19 | 7.32 | 24.1 ± 0.8 | 12.10 | 9.64 | 18.3 ± 2.4 | 221 ± 3.1 | 190.7
CSC(N)=NN=Cc1c(C(F)(F)F)nn(-c2ccccc2)c1-c1ccc(F)cc1 [3b] | 119 ± 3 | 5.07 | 2.99 | 39.9 ± 3.2 | 5.90 | 3.48 | 34.3 ± 4.7 | 202 ± 3.4 | 145.5
CSC(N)=NN=Cc1c(C(F)(F)F)nn(-c2ccccc2)c1-c1ccc(Br)cc1 [3d] | 114 ± 3.8 | 5.71 | 4.44 | 25.7 ± 2.5 | 10.55 | 8.20 | 13.9 ± 0.6 | 147 ± 3.6 | 
COc1ccc(-c2c(C=NN=C(N)SC)c(C(F)(F)F)nn2-c2ccccc2)cc1 [3f] | 101 ± 2.4 | 6.43 | 5.30 | 19.1 ± 0.9 | 8.65 | 7.13 | 14.2 ± 1.1 | 123 ± 3.1 | 
Nc1nnc(-c2c(C(F)(F)F)nn(-c3ccccc3)c2-c2ccccc2)s1 [4e, 4-[(2-amino)-1,3,4-thiadiazo-5-yl]-3-trifluoromethyl-1,5-diphenyl-1H-pyrazole] | 264 ± 3.2 | 5.18 | 4.03 | 65.6 ± 2.9 | 6.49 | 5.04 | 52.4 ± 3.5 | 340 ± 5.2 | 
